Legend:
sclerostin = molecular target: T1, sclerostin (Homo sapiens, UniProt Q9BQB4); experiment: Modulation of sclerostin/Wnt activity: restoring Wnt3a signaling in the presence of sclerostin; format: cell-based; parameters: key to Sclerostin Inhibition Assay; improvement over sclerostin alone: − indicates no improvement over sclerostin protein alone; + indicates an IC100 >10 μM; ++ indicates an IC100 <10 μM; conditions: for Sclerostin Inhibition Assay; improvement over sclerostin alone: IC100 class, Wnt3a signaling in human embryonic cells in presence of sclerostin
T1 construct: host or cells: human embryonic cells (the assay cells)
T1 sequence (Q9BQB4 24-213): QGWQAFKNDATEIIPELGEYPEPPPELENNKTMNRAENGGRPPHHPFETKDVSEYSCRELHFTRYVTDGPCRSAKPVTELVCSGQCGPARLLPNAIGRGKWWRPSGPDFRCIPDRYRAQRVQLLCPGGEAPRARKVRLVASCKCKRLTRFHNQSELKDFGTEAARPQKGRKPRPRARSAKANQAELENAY
Method: Compounds synthesized in accordance with the methods of Examples 1-14 were assayed for their ability to restore Wnt signaling in the presence of sclerostin consistent with a known sclerostin antagonist, sclerostin Mab. See, Ellies et al., J Bone Miner Res 21:1738-1749 (2006). […] The addition of a known sclerostin antagonist inhibited sclerostin inhibition of Wnt3a signaling, thus restoring Wnt3a signaling in the cell (IC100 at 10 μM) (data not shown).

[1] = system: MC3T3-E1 (mouse calvarial) osteoblast cells; experiment: Bone formation assay: rescue of sclerostin inhibition of mineralization (calcium concentration); format: cell-based; parameters: key to Sclerostin Inhibition of Mineralization; improvement over sclerostin alone: − indicates no improvement over sclerostin protein alone; + indicates an IC100 >10 μM; ++ indicates an IC100 <10 μM; conditions: for IC100: Mus musculus, MC3T3-E1, IC100 class, read-out: Sclerostin Inhibition of Mineralization, improvement over sclerostin alone; for Sclerostin Inhibition of Mineralization; improvement over sclerostin alone: IC100 class
Method: Mineralization (crystalline calcium phosphate formation) represents an in vitro model of bone formation. Using an assay in which the amount of mineralization is quantified by measuring total calcium after solubilization of deposited crystalline calcium phosphate, sclerostin was previously shown to inhibit mineralization in MC3T3-E1 (mouse calvarial) osteoblast cells. Li et al., J Bone Miner Res 24:578-588 (2008). Following the protocol described in Li et al., Compounds were assayed for their ability to rescue the inhibition of mineralization by sclerostin in MC3T3 osteoblast cells. […] Addition of a compound of Examples 1-14 neutralized sclerostin-mediated inhibition of mineralization, as reflected by the increase in calcium concentration.

[2] = Metabolic stability in pooled human liver microsomes; format: in vitro ADME; conditions: 0.1 μM compound, human liver microsomes 0.1 mg/mL, NADPH, 37 °C, 60 minutes
Method: Compounds of the present invention (0.1 μM) were incubated with microsomes at 37 °C for a total of 60 minutes. The reaction contained pooled human liver microsomal protein (0.1 mg/mL) in potassium phosphate buffer with NADPH. At the indicated time points (0, 5, 15, 30 and 60 minutes). Samples were analyzed by LC/MS/MS and remaining parent drug was calculated using Microsoft Excel (2007). Obach R S, Drug Metab Dispos. 27(11):1350-1359 (1999).

Molecule	Sclerostin Inhibition Assay; improvement over sclerostin alone (sclerostin)	IC100 [1] [µM]	Metabolic Stability [2]	Sclerostin Inhibition of Mineralization; improvement over sclerostin alone [1]	Effect of sclerostin on Wnt3a signaling (in words) (sclerostin; human embryonic cells)	Effect of sclerostin treatment alone on mineralization (in words) [1]
COc1ccc2c3ccnc(C(F)(F)F)c3n(CCN3CCOCC3)c2c1F.Cl [Example 1, 4-(2-(8-Fluoro-7-methoxy-1-(trifluoromethyl)-9H-pyrido[3,4-b]indol-9-yl)ethyl)morpholine Hydrochloride Salt]	+ (+ indicates an IC100 >10 μM)	> 10	++ (++ indicates a stability >1x)			
COc1cc2c(cc1F)c1ccnc(C(F)(F)F)c1n2CCN1CCOCC1.Cl [Example 2, 4-(2-(6-fluoro-7-methoxy-1-(trifluoromethyl)-9H-pyrido[3,4-b]indol-9-yl)ethyl)morpholine Hydrochloride Salt]	++ (++ indicates an IC100 <10 μM)	< 10	++ (++ indicates a stability >1x)			
COc1cc2c(cc1F)c1ccnc(C(F)(F)F)c1n2CCN1CCC(OC)CC1.Cl [Example 3, 6-Fluoro-7-methoxy-9-(2-(4-methoxypiperidin-1-yl)ethyl)-1-(trifluoromethyl)-9H-pyrido[3,4-b]indole Hydrochloride Salt]	++ (++ indicates an IC100 <10 μM)	< 10	++ (++ indicates a stability >1x)			
COc1cc2c(cc1F)c1ccnc(C(F)(F)F)c1n2CCN1CCN(C)C(=O)C1.Cl [Example 4, 4-(2-(6-Fluoro-7-methoxy-1-(trifluoromethyl)-9H-pyrido[3,4-b]indol-9-yl)ethyl)-1-methylpiperazin-2-one Hydrochloride Salt]	+ (+ indicates an IC100 >10 μM)	> 10	++ (++ indicates a stability >1x)			
COc1cc2c(cc1F)c1ccnc(C(F)(F)F)c1n2CCN1CC(OC(F)F)C1.Cl [Example 5, 9-(2-(3-(Difluoromethoxy)azetidin-1-yl)ethyl)-6-fluoro-7-methoxy-1-(trifluoromethyl)-9H-pyrido[3,4-b]indole Hydrochloride Salt]	++ (++ indicates an IC100 <10 μM)	< 10	++ (++ indicates a stability >1x)			
COc1cc2c(cc1F)c1ccnc(C(F)(F)F)c1n2CCN1CC2CCC(C1)O2.Cl [Example 6, 3-(2-(6-Fluoro-7-methoxy-1-(trifluoromethyl)-9H-pyrido[3,4-b]indol-9-yl)ethyl)-8-oxa-3-azabicyclo[3.2.1]octane Hydrochloride Salt]	++ (++ indicates an IC100 <10 μM)	< 10	++ (++ indicates a stability >1x)			
COc1cc2c(cc1F)c1ccnc(C(F)(F)F)c1n2CCN1C2CCC1COC2.Cl [Example 7, 8-(2-(6-Fluoro-7-methoxy-1-(trifluoromethyl)-9H-pyrido[3,4-b]indol-9-yl)ethyl)-3-oxa-8-azabicyclo[3.2.1]octane Hydrochloride Salt]	++ (++ indicates an IC100 <10 μM)	< 10	+ (+ indicates a stability of <1x)			
COc1cc2c(cc1F)c1ccnc(C(F)(F)F)c1n2CCN1CC2CC1CO2.Cl (stereo not shown) [Example 8, 5-(2-(6-Fluoro-7-methoxy-1-(trifluoromethyl)-9H-pyrido[3,4-b]indol-9-yl)ethyl)-2-oxa-5-azabicyclo[2.2.1]heptane Hydrochloride Salt]	++ (++ indicates an IC100 <10 μM)	< 10	+ (+ indicates a stability of <1x)			
COc1cc2c(cc1F)c1ccnc(C(F)(F)F)c1n2CCN1CC(OC)C(OC)C1.Cl (stereo not shown) [Example 9, 9-(2-(3,4-Dimethoxypyrrolidin-1-yl)ethyl)-6-fluoro-7-methoxy-1-(trifluoromethyl)-9H-pyrido[3,4-b]indole Hydrochloride Salt]	++ (++ indicates an IC100 <10 μM)	< 10	+ (+ indicates a stability of <1x)			
COc1cc2c(cc1F)c1ccnc(C(F)(F)F)c1n2CCN1CCC(OC)C1.Cl (stereo not shown) [Example 10, 6-Fluoro-7-methoxy-9-(2-(3-methoxypyrrolidin-1-yl)ethyl)-1-(trifluoromethyl)-9H-pyrido[3,4-b]indole Hydrochloride Salt]	++ (++ indicates an IC100 <10 μM)	< 10	++ (++ indicates a stability >1x)			
COc1cc2c(cc1F)c1ccnc(C(F)(F)F)c1n2CCN1CC2COCC2C1.Cl (stereo not shown) [Example 11, 5-(2-(6-Fluoro-7-methoxy-1-(trifluoromethyl)-9H-pyrido[3,4-b]indol-9-yl)ethyl)hexahydro-1H-furo[3,4-c]pyrrole Hydrochloride Salt]	++ (++ indicates an IC100 <10 μM)	< 10	++ (++ indicates a stability >1x)			
COc1cc2c(cc1F)c1ccnc(C(F)(F)F)c1n2CCN1CCC(F)(F)CC1.Cl [Example 12, 9-(2-(4,4-Difluoropiperidin-1-yl)ethyl)-6-fluoro-7-methoxy-1-(trifluoromethyl)-9H-pyrido[3,4-b]indole Hydrochloride Salt]	−		++ (++ indicates a stability >1x)	−		
COc1cc2c(cc1F)c1ccnc(C(F)(F)F)c1n2CCn1cncn1.Cl [Example 13, 9-(2-(1H-1,2,4-Triazol-1-yl)ethyl)-6-fluoro-7-methoxy-1-(trifluoromethyl)-9H-pyrido[3,4-b]indole Hydrochloride Salt]	−		++ (++ indicates a stability >1x)	−		
COc1c(F)cc2c3ccnc(C(F)(F)F)c3n(CCN3CCOCC3)c2c1F.Cl [Example 14, 4-(2-(6,8-Difluoro-7-methoxy-1-(trifluoromethyl)-9H-pyrido[3,4-b]indol-9-yl)ethyl)morpholine Hydrochloride Salt]	++ (++ indicates an IC100 <10 μM)	< 10	+ (+ indicates a stability of <1x)			
Sclerostin protein: protein that antagonizes Wnt3a signaling and inhibits mineralization; the assay's inhibitor and baseline	−			−	antagonized Wnt3a signaling	significant decrease in mineralization
